In data set [1] the target is T1, ABCB1 (Homo sapiens, UniProt P08183). The data set is described as follows: Bidirectional transport of [^3H]-digoxin across Caco-2 monolayers. The method, then:
Caco-2 cells were seeded at a density of 3 × 10^5 cells per insert and cultured for 21 days in a standard cultivation medium containing 1% penicillin–streptomycin. The medium was changed every other day, during which the transepithelial electrical resistance (TEER) across the cell monolayers was measured using a Millicell-ERS instrument (Millipore Corporation, Bedford, MA, USA). […] For the bidirectional permeability assay, a Hanks’ balanced salt solution buffer was used. The pH in the A compartment was adjusted to 6.5 using a methanesulfonic acid solution, while that in the B compartment was adjusted to 7.4 using a HEPES solution [34, 80]. The volumes used were 0.5 mL and 1.5 mL in compartments A and B, respectively. To improve the reproducibility of the results, the receiver compartment always contained 1% bovine serum albumin, as previously recommended. […] Samples (200 µL) were collected after 1 and 2 h from the receiver compartment; after the first collection, fresh receiver solution was added to the receiver compartment to maintain the original volume. The concentration of [^3H]-digoxin was quantified using a Tri-Carb 2900TR liquid scintillation analyzer (Packard Bioscience, Meriden, CT, USA). Its concentration in the samples collected during Caco-2 experiments was measured after adding 1 mL of Ultima Gold^TM Cocktail. A to B and B to A transport were evaluated in terms of an apparent permeability coefficient (Papp), calculated using the equation in [80, 81]. […] The efflux ratio (rPapp) was then calculated using the equation [80, 82]:rPapp = (Papp B to A)/(Papp A to B)(2)

For data set [2] the following is noted: cited from earlier work.
Data set [3] concerns the target T1, ABCB1. The experiment in a line: Ex vivo [^3H]-digoxin accumulation in hPCIS prepared from the jejunum. The method, then:
Ex vivo accumulation assays were performed as previously described. Directly after surgery, the resected part of the human jejunum was placed in cold (4 °C) Krebs–Henseleit buffer oxygenated with carbogen gas. The muscle layer was removed, and the remaining mucosa was cut into fragments measuring approximately 5 by 20 mm, which were then embedded in a 3% agarose solution (3% (wt/vol) in 0.9% NaCl, 37 °C). PCIS of approximately 300 µm thickness were cut using a Krumdieck tissue slicer (Alabama R&D, Munford, AL, USA). […] Both incubation steps were conducted in a humidified atmosphere of […] and 5% CO2 at 37 °C [32, 34, 35]. The accumulation of [^3H]-digoxin was stopped after 2 h of incubation by washing the slices twice in the Krebs–Henseleit cold buffer (4 °C). […] The samples were then centrifuged (10 min; 7800 g). Concentrations of [^3H]-digoxin in the supernatant samples (300 µL) were assessed after mixing them with 1.5 mL of Ultima Gold™ via scintillation counting (Tri-Carb 2900TR liquid scintillation analyzer, Packard Bioscience). The pellets obtained during centrifugation were dried overnight at 37 °C and then solubilized in 200 µL of 5 M NaOH for 24 h. Milli-Q water was then added to the samples to achieve a NaOH concentration of 1 M. The protein content was measured using a bicinchoninic acid protein kit (Thermo Fisher Scientific, Waltham, MA, USA). The measured [^3H]-digoxin concentrations were normalized against the protein content.

The next data set is described as follows: Solubility. It is filed as physicochemical. The settings on record: incubation medium, 0.1% DMSO. As to the method:
The stock solutions were stored at −20 °C before use. The final concentration of DMSO was 0.1% in all experiments. The final concentrations of EtOH in hPCIS and Caco-2 cells were 0.03% and 0.012%, respectively.

For data set [4], the target named is T1, ABCB1. More on the design: confirming the functional expression of ABCB1 in the Caco-2 cells; host or cells: Caco-2; method as in PMID 31481446. The settings on record: Caco-2, cited from earlier work.
The target of data set [5] is T1, ABCB1. Also noted: confirming the functional expression of ABCB1 in the Caco-2 cells; host or cells: Caco-2; method as in PMID 31481446. The following applies: hPCIS, cited from earlier work.
For data set [6], the system named is ABCB1. More on the design: method as in PMID 23132334. The settings on record: apparent activity at 100 µM; cited from earlier work.
Data set [7] deals with ABCB1. The settings on record: suggested; cited from earlier work.

Where a name gives a salt, the structure may show the parent alone. Read-outs that look alike come from different tables or passages of the source.

T1 sequence (P08183 whole entry): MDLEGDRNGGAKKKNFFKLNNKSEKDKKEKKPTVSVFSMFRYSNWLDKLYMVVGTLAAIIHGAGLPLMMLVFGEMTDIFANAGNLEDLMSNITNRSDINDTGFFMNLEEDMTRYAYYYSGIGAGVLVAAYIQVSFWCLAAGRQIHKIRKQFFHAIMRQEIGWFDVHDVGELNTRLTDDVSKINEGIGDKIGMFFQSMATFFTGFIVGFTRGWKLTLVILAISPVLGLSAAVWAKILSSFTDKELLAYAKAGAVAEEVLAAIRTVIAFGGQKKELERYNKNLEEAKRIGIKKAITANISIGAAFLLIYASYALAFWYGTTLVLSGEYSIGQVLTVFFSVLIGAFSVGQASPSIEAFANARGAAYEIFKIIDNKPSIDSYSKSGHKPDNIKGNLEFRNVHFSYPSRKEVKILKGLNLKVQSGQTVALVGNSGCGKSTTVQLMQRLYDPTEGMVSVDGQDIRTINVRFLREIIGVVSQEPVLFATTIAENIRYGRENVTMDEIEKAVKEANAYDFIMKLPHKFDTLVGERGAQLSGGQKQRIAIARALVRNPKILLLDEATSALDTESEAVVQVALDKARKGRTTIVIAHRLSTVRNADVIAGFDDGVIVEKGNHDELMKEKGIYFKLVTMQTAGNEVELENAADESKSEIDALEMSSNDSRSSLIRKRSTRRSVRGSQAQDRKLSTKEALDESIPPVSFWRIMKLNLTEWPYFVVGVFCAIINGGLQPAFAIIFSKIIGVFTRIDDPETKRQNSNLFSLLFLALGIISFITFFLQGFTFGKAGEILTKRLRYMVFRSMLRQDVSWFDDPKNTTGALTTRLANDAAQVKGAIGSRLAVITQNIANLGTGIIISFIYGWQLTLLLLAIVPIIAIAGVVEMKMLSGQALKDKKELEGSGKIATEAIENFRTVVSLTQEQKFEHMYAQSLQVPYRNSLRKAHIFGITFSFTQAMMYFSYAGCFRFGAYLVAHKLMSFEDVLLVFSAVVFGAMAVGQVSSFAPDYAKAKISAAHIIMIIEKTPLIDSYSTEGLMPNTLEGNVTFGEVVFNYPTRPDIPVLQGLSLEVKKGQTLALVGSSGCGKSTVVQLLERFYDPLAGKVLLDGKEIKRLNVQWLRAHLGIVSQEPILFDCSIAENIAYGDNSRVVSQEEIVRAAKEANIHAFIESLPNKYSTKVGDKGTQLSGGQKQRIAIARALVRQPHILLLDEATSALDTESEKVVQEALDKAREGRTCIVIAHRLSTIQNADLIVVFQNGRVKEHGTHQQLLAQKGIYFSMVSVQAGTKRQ

As for `Cc1cc(/C=C/C#N)cc(C)c1Nc1ccnc(Nc2ccc(C#N)cc2)n1` [Rilpivirine, rilpivirine], the “Digoxin Inhibition (bidirectional transport, in words)” value on ABCB1 [1] (compound 20 µM) was “YES”. Besides, the “Effect on the pharmacokinetics of digoxin or tenofovir DF in vivo” value in data set [2] (dose of 25 mg/day) is “does not significantly affect”. Further, the “Digoxin Inhibition in human PCIS (in words)” value at ABCB1 [3] (compound 20 µM, hPCIS) is listed as “did not inhibit”.
As for `Cc1cc(C#N)cc(C)c1Oc1nc(Nc2ccc(C#N)cc2)nc(N)c1Br` [Etravirine, etravirine], on ABCB1 [1] (compound 20 µM), the “Digoxin Inhibition (bidirectional transport, in words)” value is “YES”. In addition, at ABCB1 [3] (compound 20 µM, hPCIS), the “Digoxin Inhibition in human PCIS (in words)” value is “did not inhibit”. Further, the “Solubility (in words)” value in “Solubility” was “low solubility”.
As to maraviroc, the “Digoxin Inhibition (bidirectional transport, in words)” value on ABCB1 [1] (compound 100 µM) is on record as “No significant effect”. On ABCB1 [3] (compound 100 µM, hPCIS), the “Digoxin Inhibition in human PCIS (in words)” value is listed as “did not induce any detectable inhibition”. Further, the “RHD123 Inhibition (bidirectional transport)” value on ABCB1 [4] (compound 100 µM) was “YES”.
For the compound `Cc1cn([C@H]2C[C@H](N=[N+]=[N-])[C@@H](CO)O2)c(=O)[nH]c1=O` [Zidovudine, zidovudine], the “Digoxin Inhibition (bidirectional transport, in words)” value at ABCB1 [1] (compound 100 µM) is “No significant effect”. The “Digoxin Inhibition in human PCIS (in words)” value on ABCB1 [3] (compound 100 µM, hPCIS) is listed as “did not induce any detectable inhibition”.
`COC(=O)N[C@H](C(=O)N[C@@H](Cc1ccccc1)[C@@H](O)CN(Cc1ccc(-c2ccccn2)cc1)NC(=O)[C@@H](NC(=O)OC)C(C)(C)C)C(C)(C)C` [Atazanavir, atazanavir]: the “Digoxin Inhibition (bidirectional transport, in words)” value on ABCB1 [1] (compound 50 µM) was “YES”. The “Digoxin Inhibition in human PCIS (in words)” value at ABCB1 [3] (compound 20 µM, hPCIS) is “did not inhibit”; on ABCB1 [3] (compound 50 µM, hPCIS), “YES”. For the same compound, on ABCB1 [5] (compound 50 µM), the “RHD123 Inhibition in human PCIS” value is “YES”. In addition, the “RHD123 Inhibition (bidirectional transport)” value on ABCB1 [4] (compound 50 µM) is recorded as “YES”.
Regarding `Nc1nc(NC2CC2)c2ncn([C@H]3C=C[C@@H](CO)C3)c2n1` [Abacavir, abacavir], the “Digoxin Inhibition (bidirectional transport, in words)” value on ABCB1 [1] (compound 100 µM) is on record as “No significant effect”. In addition, at ABCB1 [3] (compound 100 µM, hPCIS), the “Digoxin Inhibition in human PCIS (in words)” value is “did not induce any detectable inhibition”.
On to `C[C@H]1O[C@@H](O[C@H]2[C@@H](O)C[C@H](O[C@H]3[C@@H](O)C[C@H](O[C@H]4CC[C@@]5(C)[C@H](CC[C@@H]6[C@@H]5C[C@@H](O)[C@]5(C)[C@@H](C7=CC(=O)OC7)CC[C@]65O)C4)O[C@@H]3C)O[C@@H]2C)C[C@H](O)[C@@H]1O` [Digoxin, digoxin], for which, on ABCB1 [1] (human), the efflux ratio (usually the permeability from basolateral to apical divided by that in the opposite direction, in the common usage) at 2 h, 6 nM is 9.53 ± 2.22.
With `COC(=O)N[C@H](C(=O)N1CC2(CC2)C[C@H]1c1ncc(-c2ccc3c(c2)C(F)(F)c2cc(-c4ccc5nc([C@@H]6[C@H]7CC[C@H](C7)N6C(=O)[C@@H](NC(=O)OC)C(C)C)[nH]c5c4)ccc2-3)[nH]1)C(C)C` [Ledipasvir, ledipasvir], the “Digoxin Inhibition (bidirectional transport, in words)” value at ABCB1 [1] (compound 50 µM) is “YES”. Moreover, the “Digoxin Inhibition in human PCIS (in words)” value at ABCB1 [3] (compound 20 µM, hPCIS) is recorded as “no inhibition”; at ABCB1 [3] (compound 50 µM, hPCIS) it was “no inhibition”. The “Solubility (in words)” value in the data set “Solubility” was “low solubility”. Besides, the “RHD123 Inhibition (bidirectional transport)” value on ABCB1 [4] (compound 50 µM) is given as “YES”.
With `CC(C)OC(=O)OCOP(=O)(CO[C@H](C)Cn1cnc2c(N)ncnc21)OCOC(=O)OC(C)C` [Tenofovir DF, tenofovir disoproxil fumarate], the “Digoxin Inhibition in human PCIS (in words)” value on ABCB1 [3] (compound 100 µM, hPCIS) is recorded as “did not induce any detectable inhibition”.
With `COC(=O)N[C@H](C(=O)N1CCC[C@H]1c1nc(-c2ccc(-c3ccc(-c4c[nH]c([C@@H]5CCCN5C(=O)[C@@H](NC(=O)OC)C(C)C)n4)cc3)cc2)c[nH]1)C(C)C` [Daclatasvir, daclatasvir], the “Digoxin Inhibition in human PCIS (in words)” value at ABCB1 [3] (compound 20 µM, hPCIS) was “YES”. Also, the “RHD123 Inhibition (bidirectional transport)” value at ABCB1 [4] (compound 20 µM) is given as “YES”.
For the compound `C[C@@H]1CCO[C@H]2Cn3cc(C(=O)NCc4ccc(F)cc4F)c(=O)c(O)c3C(=O)N12` [Dolutegravir, dolutegravir], the “Inhibition of digoxin transport in MDCK-ABCB1 cells” value with ABCB1 [6] is reported as “weak inhibitor”. Also, the “Digoxin Inhibition (bidirectional transport, in words)” value at ABCB1 [1] (compound 10 µM) is on record as “No significant effect”. On ABCB1 [3] (compound 10 µM, hPCIS), the “Digoxin Inhibition in human PCIS (in words)” value is on record as “did not induce any detectable inhibition”. For the same compound, the “Solubility (in words)” value in the data set “Solubility” is listed as “limited solubility”.
On to `CC(C)(C)NC(=O)[C@@H]1C[C@@H]2CCCC[C@@H]2CN1C[C@@H](O)[C@H](Cc1ccccc1)NC(=O)[C@H](CC(N)=O)NC(=O)c1ccc2ccccc2n1` [Saquinavir, saquinavir], for which the “Digoxin Inhibition (bidirectional transport, in words)” value at ABCB1 [1] (compound 20 µM) is given as “YES”. Further, the “Digoxin Inhibition in human PCIS (in words)” value is given as “did not induce any detectable inhibition” at ABCB1 [3] (compound 5 µM, hPCIS) and “YES” at ABCB1 [3] (compound 20 µM, hPCIS). Also, the “RHD123 Inhibition in human PCIS” value at ABCB1 [5] (compound 20 µM) was “YES”. The “RHD123 Inhibition (bidirectional transport)” value on ABCB1 [4] (compound 20 µM) is “YES”.
Turning to `COC[C@H]1C[C@@H](c2ncc(-c3ccc4c(c3)COc3cc5c(ccc6nc([C@@H]7CC[C@H](C)N7C(=O)[C@@H](NC(=O)OC)C(C)C)[nH]c65)cc3-4)[nH]2)N(C(=O)[C@H](NC(=O)OC)c2ccccc2)C1` [Velpatasvir, velpatasvir], the “Digoxin Inhibition (bidirectional transport, in words)” value at ABCB1 [1] (compound 5 µM) is on record as “No significant effect”. For the same compound, the “Increase of digoxin exposure” value in data set [2] (healthy volunteers) is on record as 34%. In addition, the “Solubility (in words)” value in the data set “Solubility” is “limited solubility”. For the same compound, the concentration for half-maximal inhibition (IC50) – broadly, the concentration at which inhibition is half-maximal – in the data set on ABCB1 [7] was approximately 20.6 µM.
For `C=C[C@@H]1C[C@]1(NC(=O)[C@@H]1C[C@@H]2CN1C(=O)[C@H](C(C)(C)C)NC(=O)O[C@@H]1C[C@H]1CCCCCc1nc3ccc(OC)cc3nc1O2)C(=O)NS(=O)(=O)C1CC1.O` [Grazoprevir, grazoprevir], the “Digoxin Inhibition in human PCIS (in words)” value at ABCB1 [3] is “increased [^3H]-digoxin uptake”.
On to `Cc1cccc(C)c1OCC(=O)N[C@@H](Cc1ccccc1)[C@@H](O)C[C@H](Cc1ccccc1)NC(=O)[C@H](C(C)C)N1CCCNC1=O` [Lopinavir, lopinavir], for which the “Digoxin Inhibition in human PCIS (in words)” value on ABCB1 [3] (compound 20 µM, hPCIS) is reported as “did not induce any detectable inhibition”; on ABCB1 [3] (compound 50 µM, hPCIS) it was “YES”. Moreover, the “RHD123 Inhibition in human PCIS” value at ABCB1 [5] (compound 50 µM) is on record as “YES”.
Regarding `CC(C)CN(C[C@@H](O)[C@H](Cc1ccccc1)NC(=O)O[C@H]1CO[C@H]2OCC[C@H]21)S(=O)(=O)c1ccc(N)cc1` [Darunavir, darunavir], the “Digoxin Inhibition in human PCIS (in words)” value on ABCB1 [3] (compound 50 µM, hPCIS) is “did not inhibit”.
As for `COC(=O)N[C@H](C(=O)N1CCC[C@H]1c1nc(-c2ccc3c(c2)O[C@@H](c2ccccc2)n2c-3cc3cc(-c4c[nH]c([C@@H]5CCCN5C(=O)[C@@H](NC(=O)OC)C(C)C)n4)ccc32)c[nH]1)C(C)C` [Elbasvir, elbasvir], the “Increase in plasma AUC (intestinal ABCB1 inhibition)” value in data set [2] (humans) is on record as 11%. Besides, the “Digoxin Inhibition in human PCIS (in words)” value on ABCB1 [3] (compound 5 µM, hPCIS) was “no inhibition”. Moreover, the “Solubility (in words)” value in “Solubility” is recorded as “low solubility”.
In the case of `CC(C)OC(=O)[C@H](C)N[P@](=O)(OC[C@H]1O[C@@H](n2ccc(=O)[nH]c2=O)[C@](C)(F)[C@@H]1O)Oc1ccccc1` [Sofosbuvir, sofosbuvir], the “Digoxin Inhibition in human PCIS (in words)” value on ABCB1 [3] was “no effect”.
